# Bridge positions count the residues as written; N and C are the ends. Ends that are not written are not given here.
# Assays:
# [1] = test system: TTX-s sodium channel; assay: Whole-cell patch clamp, TTX-s sodium currents in rat DRG neurons; assay type: cell-based
# Description: The effects of ISTX-I on voltage-gated ion channels were investigated in the dorsal root ganglion (DRG). DRG neurons were held at −80 mV for over 4 min to allow adequate equilibration between the micropipette solution and the cell interior, and then current traces were evoked using a 50 ms step depolarization to −10 mV every second.
# Figure 3 Effects of ISTX-I on voltage-gated ion channels in rat DRG neurons. […] (C) Dose-dependent inhibition of ISTX-I on the TTX-s Nav channel (n = 5). (D) Current-voltage (I-V) relationship for the TTX-s Nav channel currents before (solid circles) and after (open circles) the application of 5 μM ISTX-I (n = 5). (E) Conductance–voltage (G-V) relationship of the TTX-s Nav channel before (solid circles) and after (open circles) treatment with 5 μM ISTX-I (n = 5). (F) Steady-state inactivation of the TTX-s Nav channel currents before (solid circles) and after(open circles) the application of 10 μM ISTX-I (n = 5).
# Rat DRG cells were acutely dissociated from adult Sprague-Dawley rats[30]. Briefly, adult rats of either sex with body weights of approximately 200 g were killed by decapitation. The dorsal root ganglia were isolated quickly from the spinal cord and then transferred into Dulbecco’s modified Eagle’s medium (DMEM) containing trypsin I (0.15 mg/mL) and collagenase II (0.3 mg/mL) for incubation with an oscillation frequency of 200 rpm at 37 °C for 20 min. The trypsin inhibitor II-S (1 mg/mL) was added to terminate the reaction. The isolated DRG cells were split into 35 mm culture dishes with DMEM solution containing 10% fetal bovine serum (FBS) and were incubated in a CO2 incubator (5% CO2, 95% air, 37 °C) for 1–4 h before the patch-clamp experiment.
# DRG neurons with a large diameter (>[…]) and those with a relatively small diameter (<[…]) were chosen by measuring TTX-s and TTX-r currents, respectively. Meanwhile, TTX (final concentration at 100 nM) was used to separate TTX-r sodium currents from TTX-s sodium currents. Suction pipettes (2.0–4.0 MΩ) were made of borosilicate glass capillary tubes with two-step pulling on a vertical micropipette puller (PC-10, Narishige). Potassium, calcium, and sodium currents were recorded in experimental cells using whole-cell patch-clamp recordings at room temperature, which were performed with an HEK EPC10 patch-clamp amplifier. The P/4 protocol was used to subtract linear capacitive and leakage currents. Experimental data were acquired and analyzed using the programs patch master and Sigmaplot 9.0 (Sigma, USA). All of the data points represent the mean ± SE (n = the number of separate experimental cells examined). Dose-response curves were fitted using the following Hill logistic equation: y = 1 − (1 − fmax)/[1 + ([Tx]/IC50)^n] in which n is an empirical Hill coefficient and fmax is the fraction of current resistant to inhibition at high toxin (Tx) concentrations.
# Electrophysiological studies.
# Currents were recorded from experimental cells using whole-cell patch clamptechnique at room temperature (22–25 °C). The patch pipettes were fabricated from borosilicate glass tubing using a two-stage vertical microelectrode puller (PC-10, Narishige, Japan). After establishing the whole-cell recording configuration, the resting potential was held at −80 mV for at least 5 min to allow adequate equilibration between the micropipette solution and the cell interior. The micropipette solution of sodium currents for dorsal root ganglion neurons contained (in mM): 105 […]
# Ionic currents were filtered at 3 kHz and sampled at 20 kHz on EPC-9 patch clamp amplifier (HEKA, Lambrecht, Germany).
# Supplementary Figure legends
# Figure S1. Expression, purification and molecular mass determination of recombinant ISTX-I. A: Separation of ISTX-I by Sephadex G-50 gel filtration. […]
# protein molecular weight marker; lanes1&2, ISTX-I/pET-32a(+) uninduced and induced cells, respectively. B: The protein peak (indicated by an arrow) from […]
# [2] = test system: hNav1.4; assay: Whole-cell patch clamp, hNav1.4 in HEK293T cells; assay type: cell-based, human; conditions: 10 μM ISTX-I; 50 ms step to -10 mV from -80 mV
# Description: (§1) HEK293T (human embryonic kidney) cells were grown in DMEM containing 10% heat-inactivated FBS at 37 °C in a 5% CO2 incubator. The cDNA genes encoding human (h)Nav1.1, (h)Nav1.2, (h)Nav1.3, (h)Nav1.4, (h)Nav1.5, (h)Nav1.6 and (h)Nav1.7 were transiently transfected into HEK293T cells for electrophysiology using Lipofectamine-2000 (Invitrogen) in serum-reduced medium (Opti-MEM, Invitrogen) following the manufacturer’s instructions. The auxiliary subunits hβ1 and enhanced green florescent protein plasmids were cotransfected into HEK293T cells to increase the current density and efficiently select cells with green florescent protein for whole-cell patch-clamp recordings. After 12 h, the HEK293T cells were used for electrophysiological analysis.
# (§2) DRG neurons with a large diameter (>[…]) and those with a relatively small diameter (<[…]) were chosen by measuring TTX-s and TTX-r currents, respectively. […] Potassium, calcium, and sodium currents were recorded in experimental cells using whole-cell patch-clamp recordings at room temperature, which were performed with an HEK EPC10 patch-clamp amplifier. […] Experimental data were acquired and analyzed using the programs patch master and Sigmaplot 9.0 (Sigma, USA). […]
# (§3) Currents were recorded from experimental cells using whole-cell patch clamptechnique at room temperature (22–25 °C). […]
# [3] = test system: hNav1.5; assay: Whole-cell patch clamp, hNav1.5 in HEK293T cells; assay type: cell-based, human; conditions: 10 μM ISTX-I; 50 ms step to -10 mV from -80 mV
# Description: as §1, §2, §3
sequence,measurement,setting,value
"LCSENGDCAADECCVDTVFEGDMVTRSCEKTTGNFTECPGLTPIA (disulfide 2-14, 8-28, 13-38) [ISTX-I]",effect on TTX-s sodium channels (summary),[1],specifically inhibited TTX-s sodium channels
same,Inhibition of TTX-s Nav channel currents,[1]; 1 μM ISTX-I (legend of Fig. 3A),Inhibition of TTX-s Nav channel currents
same,reduction of TTX-s sodium channel currents,"[1]; 2 μM ISTX-I, 50 ms step depolarization to −10 mV, held at −80 mV, room temperature",approximately 50%
same,change of conductance–voltage (G-V) relationship,"[1]; 5 μM ISTX-I, TTX-s, n = 5",No changes
same,shift of current–voltage (I-V) curve,"[1]; 5 μM ISTX-I, TTX-s, n = 5",No changes
same,"shift of steady-state inactivation curve, hyperpolarized direction","[1]; 10 μM ISTX-I, TTX-s, n = 5",approximately 11 mV
same,IC50,"[1]; Hill equation fit, 50 ms step to −10 mV from −80 mV, mean ± SE, n = 5",2500 ± 1400 nM
same,effect on hNav1.4,[2],no effect
same,effect on hNav1.5,[3],no effect

# — PMC4942781, “A sodium channel inhibitor ISTX-I with a novel structure provides a new hint at the evolutionary link between two toxin folds” (Scientific Reports, 2016)
